Reference: patent publication US11478526B2, “Methods of reducing neuroinflammation or toxicity induced by amyloid beta (abeta) using glucocorticoid induced leucine zipper (GILZ) analog peptides” (INDIANA UNIVERSITY RESEARCH AND TECHNOLOGY CORPORATION, priority 2016, dated 2022)

How the values were obtained:
[1] = test system: primary human fetal brain cells (HFB); experiment: CTG viability of primary human fetal brain cultures with or without Aβ1-42; assay type: cell-based; conditions: for viability of Aβ1-42 exposed HFB cells: Aβ1-42 10 μM
Procedure: Functional assays in human primary mixed brain cultures (HFB). Primary cultures of mixed HFB were prepared from the brain parenchyma of aborted fetuses (80-100 days gestational age). The tissues were obtained from the Birth Defects Research Laboratory (BDRL) at the University of Washington, Seattle with approval from the Indiana University Institutional Review Board (IRB). The IRB determined that the use of anonymous human biological materials received from this depository is not considered as human subjects research (supplementary document, s1). The NIH funded BDRL tissue distribution program operates separately in full compliance with all relevant state and federal laws and regulations with donors providing written informed consent.
Fetal brain materials (10-20 g) were shipped overnight in chilled Hibernate-E medium (Invitrogen) supplemented with B27 (Invitrogen), GlutaMAX (Invitrogen) and antibiotic-antimycotic solution (Cellgro). HFB were prepared and cultured as described. Briefly, cells were cultured in Neurobasal medium (Invitrogen) without phenol red supplemented with 1×B27, […] GlutaMAX, 1×antibiotic cocktail, 5 ng/mL recombinant fibroblast growth factor 2 (bFGF) (Invitrogen), and 2 μL/mL Normocin (InVivoGen, San Diego, Calif., USA). Cells were counted and seeded onto poly-D-lysine (Sigma-Aldrich) coated 24-well plates (Corning, Lowell, Mass., USA) at 1.5×10^5 cells per well and maintained at 37° C. in a 5% CO2 incubator. Half media changes were performed every 4th day of culture and morphology was monitored via phase contrast microscopy. Culture medium was removed from cells on day 17 (DIV17) and replaced with Neurobasal medium with B27. […] Cells and conditioned media were harvested and stored for further analysis. Relative ATP concentration was measured using the CTG kit (Promega). Data is presented as ΔRLU=RLU of Aβ1-42 exposed cells-RLU unexposed cells. Conditioned media collected were assessed for specific cytokines using the OptEIA kits (BD Biosciences). Nuclear and cytoplasmic fractions were extracted using the CelLytic™ NuCLEAR™ Extraction Kit (Sigma) following manufacturer's protocol. Five microgram of nuclear extracts was incubated in a 96-well plate coated with oligonucleotides containing the NF-κβ consensus nucleotide sequence (5′-[…]-3′) (SEQ ID NO: 30). The activated NF-κβ bound to DNA was detected by anti-p65 antibody followed by a peroxidase coupled secondary antibody and substrate using the TransAM kit protocol (Active Motif). Nuclear extracts of Raji cells was used as the positive control.
Select PGA protects against Aβ1-42 induced toxicity, prevents p65 activation and cytokine response in human fetal brain (HFB) cells. […] Viability in terms of relative luminescent Units (RLU) was quantified using a Glowmax luminometer (Promega, Wis.). Data are presented as ARLU=RLU of Aβ1-42 exposed cells-RLU of unexposed cells. […] The mean RLU of vehicle treated HFB varied between 7352.75+/−1265.2 and 16157.5+/−4950. Average RLU of cultures exposed to Aβ1-42 varied between 6067.25+/−903.05 and 11574.25+/−4139.3 in different experiments. […] The culture supernatants were assessed for cytokines by ELISA (R&D Systems, Minn.). […] Primary HFB cultured similarly and harvested at the end of 4 hours was assessed for nuclear p65 using TransAM kit for NF-κB p65 (Active Motif, Calif.).

[2] = biological target: T1, Recombinant human p65 protein (r-p65) (Homo sapiens, UniProt Q04206); experiment: Plate binding ELISA of GA/PGA with r-p65 (KD by method of Friguet)
T1 construct: purchased Ori-Gene Technologies Inc., Rockville, Md; TP320780
T1 sequence (Q04206 whole entry): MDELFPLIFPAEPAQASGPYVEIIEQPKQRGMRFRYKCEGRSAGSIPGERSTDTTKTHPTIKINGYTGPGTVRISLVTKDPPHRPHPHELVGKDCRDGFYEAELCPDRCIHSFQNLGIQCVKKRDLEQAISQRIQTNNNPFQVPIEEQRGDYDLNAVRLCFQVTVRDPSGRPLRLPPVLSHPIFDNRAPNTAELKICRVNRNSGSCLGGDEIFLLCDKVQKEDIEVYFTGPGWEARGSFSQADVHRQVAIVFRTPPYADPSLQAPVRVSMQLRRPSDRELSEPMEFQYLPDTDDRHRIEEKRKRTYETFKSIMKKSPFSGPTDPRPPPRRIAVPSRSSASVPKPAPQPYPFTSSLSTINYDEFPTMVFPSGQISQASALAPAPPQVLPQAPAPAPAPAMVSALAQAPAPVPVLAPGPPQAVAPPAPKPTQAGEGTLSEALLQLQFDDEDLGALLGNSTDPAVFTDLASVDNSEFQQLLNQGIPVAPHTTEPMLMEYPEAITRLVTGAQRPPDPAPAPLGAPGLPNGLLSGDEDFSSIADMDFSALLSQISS
Procedure: We used similar method to determine direct binding kinetics of GA hexapeptides with human r-p65. […] Absorbance at 650 nm was measured with a mixing time of 30 s using BIORAD microplate reader. […] The dissociation constant of the interaction between the GA or the control peptide and r-p65 was determined by the method of Friguet et al., as described. A fraction of the bound r-p65 (x) and the ratio of bound r-p65 to the free GA or control peptide (y) was determined by the equations: x=(A0−A)/(A0), where A0 is the absorbance of r-p65anti-p65 complex in the absence of bound GA or control peptide and y=(A0−A)/(a0−i0)×(A0−A)/(A0), where a0 is the total concentration of GA or control peptide and i0 is the total concentration of r-p65.
Kinetics of PGA:-p65 interaction: The binding kinetics of top five PGA with full length human r-p65 was assessed as described. Plate bound GILZ-P or PGA at increasing concentrations was probed with r-p65-DDK (Ori-Gene Technologies Inc., Rockville, Md.) at constant concentration and detected with anti-DDK.

[3] = LD50 predicted from in-vitro IC50 by regression (Speilmann method); conditions: for LD50 (mM): score 1/0; for LD50 estimated from IC50: Log (LD50)=0.506×(log IC50)+0.475, body weight
Procedure: Lactate dehydrogenase (LDH) assay: To detect direct GA-induced cell lysis we performed LDH release assays (Roche Molecular Diagnostics). […] Approximately 5×10^4 U373 cells/well were cultured in 96-well plates in the presence of increasing concentrations of individual GA or control peptide from 0.5 μM to 500 μM. Cells treated with 2% triton-X 100 (Sigma Aldrich, St. Louis, Mo.) for 10 minutes served as positive control. Untreated cells served as controls for spontaneous LDH-release. Specific LDH-release was calculated according to the following formula: LDH-release %=100*(GA or control peptide treated cells—untreated cells)/(positive control-untreated cells). The IC50 values were extrapolated by logarithmic estimation. The LD50 in mg/kg was predicted using the formula, Log (LD50)=0.506×(log IC50)+0.475. […]

[4] = test system: U373 cells; experiment: Annexin-V and propidium iodide apoptosis by flow cytometry; assay type: cell-based, human; conditions: score 1/0
Procedure: Detection apoptosis by flow cytometry: To further assess cell cytotoxicity, the apoptotic effects of individual GA or control peptide was evaluated by the Annexin-V and propidium iodide (PI) dual staining method (Annexin-V-Fluos staining kit, Roche Diagnostics, Mannheim, Germany). As opposed to apoptotic cells, necrotic cells with ruptured cell membrane take up PI, the DNA binding dye. Thus, cells which take up both fluorochromes are a mixture of apoptotic and necrotic cells, whereas cells that exclude PI but bind Annexin V are (early) apoptotic cells. U373 cells cultured with varying concentrations of individual GA or control peptide (0.5 μM to 50 μM) for 24 hours were centrifuged and suspended in 100 μl of Annexin V/PI labelling solution (20 μl each of Annexin-V-Fluos labelling reagent and PI in 1 ml of binding buffer) for 15 min at room temperature. After washing the cells were resuspended in PBS:1% paraformaldehyde and analyzed using a FACScan flow cytometer (BD Biosciences, San Jose, Calif.).

[5] = test system: U373 cells; assay type: cell-based, human; conditions: Example 9, PGA synthesized with TAT; read-out: IC50 of LDH release extrapolated from regression analysis
Procedure: Lactate dehydrogenase (LDH) assay: To detect direct GA-induced cell lysis we performed LDH release assays (Roche Molecular Diagnostics). […] Approximately 5×10^4 U373 cells/well were cultured in 96-well plates in the presence of increasing concentrations of individual GA or control peptide from 0.5 μM to 500 μM. Cells treated with 2% triton-X 100 (Sigma Aldrich, St. Louis, Mo.) for 10 minutes served as positive control. Untreated cells served as controls for spontaneous LDH-release. Specific LDH-release was calculated according to the following formula: LDH-release %=100*(GA or control peptide treated cells—untreated cells)/(positive control-untreated cells). The IC50 values were extrapolated by logarithmic estimation. The LD50 in mg/kg was predicted using the formula, Log (LD50)=0.506×(log IC50)+0.475.
Effects of PGA on membrane integrity and apoptosis: The top five PGA were covalently synthesized with the cell penetrating TAT (transcriptional transactivation) peptide to facilitate intracellular delivery (Genescript, N.J.). Membrane integrity of U373 microglial cells exposed to increasing concentration of each PGA from 0.5 μm to 500 μM was assessed by the leakage of intracellular lactate dehydrogenase (LDH) into culture medium (Roche, Ind.).

[6] = test system: differentiated SK-N-SH neuroblastoma cells; experiment: Cellular morphology and CTG viability in differentiated neuroblasts; conditions: 50 μM or 500 μM, 24 hours; for cell morphology: phase contrast
Procedure: Cell Titer-Glo (CTG) luminescent cell viability assay: Human neuroblastoma (SK-N-SH) cells cultured in minimal essential medium (MEM) supplemented with 1% fetal bovine serum (FBS) and 1% penicillin (100 U/ml)/streptomycin (100 μg/ml) were differentiated with 10 μM all-trans retinoic acid for 7 days. After resting for 24 hours in the low serum medium, the cells were seeded in 24 well (10^5 cells/well) culture plates in fresh medium and incubated with 50 μM or 500 μM of individual GA or control peptide for additional 24 hours. The cultures were then photographed using a phase contrast Leica microscope (Leica Microsystems Inc, Buffalogrove, Ill.). Subsequently, the cells were harvested, lysed with lysis buffer (M-PER, Pierce) and the lysate was assessed for metabolic activity using the luciferase based CTG assay (CTG, Promega, Madison, Wis.). Briefly, cell lysate (5 μL) in 25 μL of phosphate buffered saline was transferred to an opaque white 96-well plate, and then 30 μL of CTG assay solution was added. The relative luminescent signal (RLT) was quantified using a Glowmax luminometer (Promega).

[7] = test system: LPS induced neuroinflammation; experiment: LPS induced neuroinflammation: real time PCR of brain tissue; assay type: in vivo, mouse; conditions: 25 mg/kg i.v. alternate days, day 7
Procedure: Animals and lipopolysaccharide induced neuroinflammation: Male C57/6J mice weighing 32 to 37 grams were housed five per cage at a temperature of 22±2° C. with 12 hour light/12 hour dark cycles with free access to laboratory food and water. Lipopolysaccharides (LPS) from Escherichia coli 026:B6, =10,000 EU/mg, purified by phenol extraction was purchased from Sigma (Sigma Aldrich, Mo., USA). The mice were randomly divided into seven groups: LPS, LPS+GA-1 or GA-2 or CP-1 or CP-2 or CP-3 or TAT. The LPS was administered intraperitoneally at […] in 100 μl of sterile saline followed by corn oil in the morning daily for six days. The GA or CP was administered intravenously at 25 mg/kg in 100 μl of sterile saline on alternate days. Additional control group included mice receiving saline alone. All animals were sacrificed on day 7.
Real time polymerase chain reaction. Total cellular RNA was isolated from each brain tissue using Qiagen kit (Invitrogen, Carlsbad, Calif.) following manufacturer's protocol and reverse transcribed using iScript cDNA synthesis kit (Biorad, Calif.). Equal amount of cDNA measured by the Nanodrop (ThermoFisher Scientific, Waltham, USA) was used for amplification of IL-1β, IL-12, CD14, BclXL and Bcl2. Real time PCR was performed using SYBR green/ROX qPCR master mix (SA Biosciences, Frederick, Md.) on the ABI Prism 7000 sequence detection system (Applied Biosystem, Foster City, Calif., USA). Each reaction contains 2×12.5 μl of master mix, 1 μl of 10 μM of primers and 50 ng of the cDNA, to a total volume of 25 μl. The thermal cycling conditions included an initial denaturation step at 50° C. for 2 min, 95° C. for 3 min, 39 cycles at 95° C. for 30 s, annealing temperature at 62° C. for 30 s and extension at 72° C. for 30 s.
The gene specific threshold cycle (Ct) for each sample (ΔCt) was corrected by subtracting the Ct for the housekeeping gene β-actin. Untreated controls were chosen as the reference samples. The ΔCt for all experimental samples was subtracted by the ΔCt for the control samples (ΔΔCt).The difference in each gene specific threshold between the sample from vehicle treated and GA or CP treated cells was determined to obtain the relative change in the specific mRNA. The magnitude of change in the mRNA was expressed as 2^−ΔΔCt. Each measurement of a sample was performed in duplicates.

[8] = test system: Aβ1-42 exposed HFB cells; experiment: Cytokines in culture medium of Aβ1-42 exposed HFB; assay type: cell-based, human; conditions: PGA at IC50 concentration
[9] = dissociation constant, KD, method of Friguet et al.

Substance | tolerance of HFB cultures (ΔRLU, CTG) ([1]; PGA at IC50 concentration) | Kd ([2]; KD (uM), score 1/0) [µM] | Kd [2, 9] [µM] | LD50 (mM) [3] | % apoptosis at LD50 [4] | IC50 [5] [µM] | cellular metabolic activity / viability (CTG assay) [6] | cell morphology [6] | tolerance of HFB cultures (Δ-RLU, CTG) ([1]; 50 μM peptide) | LD50 estimated from IC50 [3] [mg/kg] | relative expression of BCl2 in brain tissues [7] | relative expression of BclXL in brain tissues [7] | relative expression of CD14 mRNA in brain tissues [7] | viability of Aβ1-42 exposed HFB cells ([1]; PGA at IC50 concentration, 24 hours) | viability of Aβ1-42 exposed HFB cells ([1]; 50 μM peptide, vs untreated Aβ1-42 exposed cultures) | AIL-1p concentration in culture supernatant (not shown) [8] | AIL-6 concentration in culture supernatant [8]
Ac-APKPYQPRG-NH2 [PGA-1] | significant toxicity | > 3 | 4.28 | 0 (<100) | 0 (>25) | 2.27 |  |  |  |  |  |  |  |  |  |  | 
Ac-APKPYQPRG-NH2 [CP-3] |  |  |  |  |  |  | reduced the viability of the cells at both concentrations tested | morphological changes consistent with cell death | significant toxicity | 237.62 | 0.44+/−0.9 | 0.13+/−0.1 | 1.2+/−0.1 |  |  |  | 
Ac-EPAPYQPEG-NH2 [PGA-3] | well tolerated | > 3 | 3.27 | 1 (>100) | 1 (<25) | 0.98 |  |  |  |  |  |  |  | significantly higher |  |  | 
Ac-EPAPEQPDG-NH2 [CP-2] |  |  |  |  |  |  | did not adversely affect the differentiated neuroblastoma cells | no apparent adverse effects on morphology | significant toxicity | 237.52 | 0.45+/−0.9 |  | 2.4+/−2 |  |  |  | 
Ac-EPAPYQPEG-NH2 [CP-1] |  |  |  |  |  |  | did not adversely affect the differentiated neuroblastoma cells | no apparent adverse effects on morphology |  | 272.78 | 0.36+/−0.8 | 0.06+/−0.08 | 1+/−0.3 |  | not significant |  | 
Ac-EPAPEQPDG-NH2 [PGA-5] | significant toxicity | > 3 | 3.4 | 1 (>100) | 0 (>25) | 2 |  |  |  |  |  |  |  |  |  | significantly lower | significantly lower
